Data on 16 compounds can be found in US12435061B2 (priority 2020, dated 2025).

Series [1] is described as follows: Metabolic Stability assay, rat liver microsomes. It counts as in vitro ADME. The note with it: read-out: LM T1/2 (min) (rat). Put shortly: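 Reactions in human or rat liver microsomes at 37 °C were started with an NADPH-regenerating system, using 1 μM compound initially. Samples were taken at 0, 7, 15, 30 and 60 min, quenched in ice-cold acetonitrile/MeOH/H2O, and quantified by HPLC/MS/MS.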
A general note: Liver microsomes are vesicles of endoplasmic reticulum, rich in cytochrome P450 enzymes.

For series [2], the target named is T1, hTRPV3 (Homo sapiens (Human), UniProt Q8NET8). Briefly: hTRPV3 HAMA IC50 assay (Hamamatsu FDSS6000 calcium flux, TRex-293 cells). Background: Calcium flux is commonly read through the fluorescence of an indicator in the cells.
T1 sequence (Q8NET8 whole entry): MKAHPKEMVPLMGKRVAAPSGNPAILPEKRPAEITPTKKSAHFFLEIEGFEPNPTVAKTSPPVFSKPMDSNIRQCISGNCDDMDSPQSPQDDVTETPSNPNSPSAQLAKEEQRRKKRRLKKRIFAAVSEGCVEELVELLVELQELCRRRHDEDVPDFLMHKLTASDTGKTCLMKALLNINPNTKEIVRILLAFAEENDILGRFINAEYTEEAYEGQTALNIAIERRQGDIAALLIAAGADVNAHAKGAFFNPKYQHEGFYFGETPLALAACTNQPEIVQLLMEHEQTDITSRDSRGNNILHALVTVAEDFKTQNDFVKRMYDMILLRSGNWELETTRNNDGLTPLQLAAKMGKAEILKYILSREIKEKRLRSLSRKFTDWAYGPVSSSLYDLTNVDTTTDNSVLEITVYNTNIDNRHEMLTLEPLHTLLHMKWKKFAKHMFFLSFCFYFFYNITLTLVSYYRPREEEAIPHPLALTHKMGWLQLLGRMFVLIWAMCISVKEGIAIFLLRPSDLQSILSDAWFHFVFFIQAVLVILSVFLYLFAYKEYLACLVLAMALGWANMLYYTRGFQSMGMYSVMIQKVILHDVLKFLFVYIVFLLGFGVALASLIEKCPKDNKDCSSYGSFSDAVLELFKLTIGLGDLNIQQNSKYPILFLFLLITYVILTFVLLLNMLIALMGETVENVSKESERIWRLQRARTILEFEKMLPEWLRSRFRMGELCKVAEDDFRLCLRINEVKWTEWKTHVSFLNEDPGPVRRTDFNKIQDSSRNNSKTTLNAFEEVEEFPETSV
Method: IC50s were calculated using CBIS from ChemInnovation (San Diego).
In series [3] the target is T1, hTRPV3. Briefly: Whole-cell patch clamp, hTRPV3 Phase 1 / Phase 2 currents. Type of series: cell-based. Summed up:
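Currents are activated by 20 μM 2-APB or by perfusate at 28 °C or warmer, in Ringer's solution, and quantified at ±80 mV.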
(Patch clamp records ionic current or voltage across a cell membrane.)

The nature of series [4]: Aqueous solubility assay in Normal Ringer Solution. The note with it: Normal Ringer Solution; for solubility at 40 min: saline or isotonic, kinetic from dmso stock; for Solubility Ringer (nM): room temperature. How it is done:
Following vortex and incubation for a sufficient time (e.g. 40 minutes at room temperature), solutions were filtered, quenched with acetonitrile, and analyzed by Liquid Chromotography. Solubility Limits were determined by comparison to a standard curve.

Setting [5] is: Phase 1 current, inward, whole-cell patch clamp, read-out: hTRPV3 Patch P1 Inwd.
[6] abbreviates: Phase 1 current, read-out: hTRPV3 (nM) (Phase 1).
Where [7] appears, read: Phase 2 current, inward, whole-cell patch clamp, read-out: hTRPV3 Patch P2 Inwd.
[8] abbreviates: Phase 2 current, read-out: hTRPV3 (nM) (Phase 2).
[9] abbreviates: hTRPV3 HAMA IC50 (nM) (5 min), 5 min.
The mark [10] stands for this setting: hTRPV3 HAMA IC50 (nM) (30 min), 30 min.

SMILES strings stand for the structures. Converted amounts (≈) assume the structure as drawn. “And” between values parts separate entries of the source, which are not always exact repeats. Equal values may be shown once. Read-outs that look alike come from different tables or passages of the source.

As to `NC(=O)c1cc(Cl)ccc1N1CC[C@H](Oc2ccc(C(F)(F)F)cn2)C1` [Compound 1-31, (S)-5-chloro-2-(3-(5-(trifluoromethyl)pyridin-2-yloxy)pyrrolidin-1-yl)benzamide], the half-life at 1 μM in series [1] is 34.3 min. Besides, the “hTRPV3 HAMA IC50 (nM) (5 min)” value in series [2] (5 min) is on record as “no fit (5 min)”. The IC50 is 100 to 1000 nM in series [3] (setting [5]), approximately 883 nM in series [3] (setting [6]), 100 to 1000 nM in series [3] (setting [7]) and 546 nM in series [3] (setting [8]). In series [4], the solubility – broadly, the dissolved amount per volume that the medium holds – at 40 min was more than 16.8 µM.
On to `NC(=O)c1cc(-c2ccccc2)ccc1N1CC[C@H](Oc2ccc(C(F)(F)F)cn2)C1` [Compound 1-32, (S)-4-(3-(5-(trifluoromethyl)pyridin-2-yloxy)pyrrolidin-1-yl)biphenyl-3-carboxamide], for which, in series [1], the half-life at 1 μM came to 44.3 min. Also, the “hTRPV3 HAMA IC50 (nM) (5 min)” value in series [2] (5 min) is given as “no fit (5 min)”. For the same compound, the IC50 was 100 to 1000 nM in series [3] (setting [5]), 285 nM in series [3] (setting [6]), 100 to 1000 nM in series [3] (setting [7]) and 273 nM in series [3] (setting [8]). In addition, the “Solubility Ringer (nM)” value in series [4] is reported as “BLQ”.
Consider `OCc1cc(-c2ccccc2)ccc1N1CC[C@H](Oc2ccc(C(F)(F)F)cn2)C1` [Compound 1-115, (S)-(4-(3-(5-(trifluoromethyl)pyridin-2-yloxy)pyrrolidin-1-yl)biphenyl-3-yl)methanol], for which the half-life at 1 μM in series [1] was determined as 45.8 min. The IC50 in series [2] (setting [9]) is > 20000 nM and 5860 nM; in series [3] (setting [5]), 10 to 100 nM; in series [3] (setting [6]) it was 74.2 nM; in series [3] (setting [7]) it was 10 to 100 nM; in series [3] (setting [8]), 59 nM. In addition, in series [4], the solubility at 40 min is 0.37 µM (≈ 0.153 µg/mL).
For `CC(O)c1cc(-c2ccccc2)ccc1N1CC[C@H](Oc2ccc(C(F)(F)F)cn2)C1` (stereo partly drawn) [Compound 1-121, 1-(4-((S)-3-(5-(trifluoromethyl)pyridin-2-yloxy)pyrrolidin-1-yl)biphenyl-3-yl)ethanol], the half-life at 1 μM in series [1] came out at 33.3 min. The “hTRPV3 HAMA IC50 (nM) (5 min)” value in series [2] (5 min) is “no fit (5 min)”. The values for the IC50 in series [3] (setting [5]) and in series [3] (setting [6]) were 10 to 100 nM and 102 nM, respectively. Moreover, the “Solubility Ringer (nM)” value in series [4] is “BLQ”.
With `NC(=O)c1cc(Oc2ccccc2)ccc1N1CC[C@H](Oc2ncccc2Cl)C1` [Compound 1-129], the half-life at 1 μM in series [1] was found to be 6.42 min. Moreover, the “hTRPV3 HAMA IC50 (nM) (5 min)” value in series [2] was “no fit (5 min)”. Also, in series [3] (hTRPV3 Patch P1 Inwd (nM)), the IC50 was in the range of 100 to 1000 nM.
`NC(=O)c1cc(C(=O)c2ccccc2)ccc1N1CC[C@H](Oc2ccc(C(F)(F)F)cn2)C1` [Compound 1-130, (S)-5-benzoyl-2-(3-(5-(trifluoromethyl)pyridin-2-yloxy)pyrrolidin-1-yl)benzamide]: the half-life at 1 μM in series [1] amounted to 67 min. In addition, in series [2] (5 min), the “hTRPV3 HAMA IC50 (nM) (5 min)” value is reported as “no fit (5 min)”. Besides, the IC50 in series [3] (setting [5]) is more than 1000 nM; in series [3] (setting [6]), 1540 nM. In series [4], this compound showed a solubility at 40 min of approximately 12.2 µM (≈ 5.56 µg/mL).
Turning to `Cc1cccnc1O[C@H]1CCN(c2ccc(-c3ccccc3)cc2CO)C1` [Compound 1-131, (S)-(4-(3-(3-methylpyridin-2-yloxy)pyrrolidin-1-yl)biphenyl-3-yl)methanol], in series [1], the half-life at 1 μM was determined as 23.5 min. Also, the “hTRPV3 HAMA IC50 (nM) (5 min)” value in series [2] (5 min) is “no fit (5 min)”. For the same compound, the values for the IC50 in series [3] (setting [5]) and in series [3] (setting [6]) were 100 to 1000 nM and 148 nM, respectively. Further, the solubility at 40 min in series [4] was approximately 0.62 µM (≈ 0.223 µg/mL).
Taken in the same sequence, the figures for `OCCOc1cc(-c2ccccc2)ccc1N1CC[C@H](Oc2ccc(C(F)(F)F)cn2)C1` [Compound 1-135, (S)-2-(4-(3-(5-(trifluoromethyl)pyridin-2-yloxy)pyrrolidin-1-yl)biphenyl-3-yloxy)ethanol] were 69.7 min, “no fit (5 min)”, 100 to 1000 nM, 765 nM and 0.19 µM (≈ 0.0844 µg/mL).
Consider `NC(=O)c1cc(C(=O)c2ccccc2)ccc1N1CC[C@@H](Oc2ccc(C(F)(F)F)cn2)C1` [Compound 1-154, (R)-5-benzoyl-2-(3-(5-(trifluoromethyl)pyridin-2-yloxy)pyrrolidin-1-yl)benzamide], for which the half-life at 1 μM in series [1] was 54.5 min. The “hTRPV3 HAMA IC50 (nM) (5 min)” value in series [2] (5 min) is listed as “no fit (5 min)”. Moreover, the results for the IC50 in series [3] (setting [5]) and in series [3] (setting [6]) were more than 1000 nM and 3040 nM, respectively.
Taken in the same sequence, the figures for `CCOc1ccccc1-c1ccc(N2CC[C@H](Oc3ccc(C(F)(F)F)cn3)C2)c(CO)c1` [Compound 1-162, (S)-(2′-ethoxy-4-(3-(5-(trifluoromethyl)pyridin-2-yloxy)pyrrolidin-1-yl)biphenyl-3-yl)methanol] were 22.8 min, “no fit (5 min)”, 10 to 100 nM and 101 nM.
In the case of `NC(=O)c1cc(Oc2ccccc2Cl)ccc1N1CC[C@H](Oc2ncccc2Cl)C1` [Compound 1-181, (S)-5-(2-chlorophenoxy)-2-(3-(3-chloropyridin-2-yloxy)pyrrolidin-1-yl)benzamide], the half-life at 1 μM in series [1] is 8.96 min. Moreover, the “hTRPV3 HAMA IC50 (nM) (5 min)” value in series [2] (5 min) is listed as “no fit (5 min)”. Besides, the IC50 in series [3] (setting [5]) is 100 to 1000 nM; in series [3] (setting [6]), 571 nM; in series [3] (setting [7]) it was 100 to 1000 nM; in series [3] (setting [8]), 834 nM.
Turning to `Cc1ccccc1-c1ccc(N2CC[C@H](Oc3ccc(C(F)(F)F)cn3)C2)c(CO)n1` [Compound 1-182, (S)-(6-o-tolyl-3-(3-(5-(trifluoromethyl)pyridin-2-yloxy)pyrrolidin-1-yl)pyridin-2-yl)methanol], the IC50 is 19900 nM in series [2] (setting [9]), 4600 nM in series [2] (setting [10]), more than 1000 nM in series [3] (setting [5]) and more than 3200 nM in series [3] (setting [6]). Further, the solubility at 40 min in series [4] is approximately 0.8 µM (≈ 0.344 µg/mL).
On to `COc1ccccc1-c1ccc(N2CC[C@H](Oc3ccc(C(F)(F)F)cn3)C2)c(CO)n1` [Compound 1-183, (S)-(6-(2-methoxyphenyl)-3-(3-(5-(trifluoromethyl)pyridin-2-yloxy)pyrrolidin-1-yl)pyridin-2-yl)methanol], for which, in series [2] (5 min), the “hTRPV3 HAMA IC50 (nM) (5 min)” value is given as “no fit (5 min) no fit (30 min)”. Besides, the “hTRPV3 HAMA IC50 (nM) (30 min)” value in series [2] (30 min) was “no fit (5 min) no fit (30 min)”. The IC50 in series [3] (setting [7]) was more than 1000 nM; in series [3] (setting [8]) it was more than 3200 nM. In series [4], this compound yielded a solubility at 40 min of 0.84 µM (≈ 0.374 µg/mL).
As to `Cc1ccc(O[C@H]2CCN(c3ccc(-c4ccccc4CN(C)C)cc3CO)C2)nc1` [Compound 1-219, (S)-(2′-((dimethylamino)methyl)-4-(3-(5-methylpyridin-2-yloxy)pyrrolidin-1-yl)biphenyl-3-yl)methanol], the “hTRPV3 HAMA IC50 (nM) (5 min)” value in series [2] (5 min) was “no fit (5 min) no fit (30 min)”. Moreover, the “hTRPV3 HAMA IC50 (nM) (30 min)” value in series [2] (30 min) is “no fit (5 min) no fit (30 min)”. Further, the IC50 in series [3] (hTRPV3 Patch P1 Inwd (nM)) was more than 1000 nM; in series [3] (read-out: hTRPV3 (nM) (Phase 1)), more than 3200 nM. Also, the solubility at 40 min in series [4] was more than 20 µM.
In the case of `CCc1ccccc1Oc1ccc(N2CC[C@H](Oc3ncccc3Cl)C2)c(CCO)c1` [Compound 1-236, (S)-2-(2-(3-(3-chloropyridin-2-yloxy)pyrrolidin-1-yl)-5-(2-ethylphenoxy)phenyl)ethanol], the “hTRPV3 HAMA IC50 (nM) (5 min)” value in series [2] (5 min) is “no fit”. Further, the results for the IC50 in series [2] (setting [10]), in series [3] (setting [5]) and in series [3] (setting [6]) were 5900 nM, less than 10 nM and 8.27 nM, respectively. In addition, in series [4], the “Solubility Ringer (nM)” value is “BLQ”.
Take `OCCc1cc(Oc2ccccc2Cl)ccc1N1CC[C@H](Oc2ncccc2Cl)C1` [Compound 1-238, (S)-2-(5-(2-chlorophenoxy)-2-(3-(3-chloropyridin-2-yloxy)pyrrolidin-1-yl)phenyl)ethanol]: the IC50 in series [2] (setting [9]) is more than 20000 nM; in series [2] (setting [10]), 16700 nM; in series [3] (setting [5]) it was 10 to 100 nM; in series [3] (setting [6]), approximately 51 nM. In addition, the “Solubility Ringer (nM)” value in series [4] is “BLQ”.
